Data reported in patent KR20130112248A, “피라졸로피리미딘 유도체 화합물, 이를 포함하는 산화질소 생성 억제용 조성물 및 뇌신경 질환 예방 및 치료용 약학적 조성물” (한국과학기술연구원, priority 2012, dated 2013).

These compounds were tested on NO production in BV-2 cells [NO 생성; BV-2 세포] (assay: Nitric oxide (NO) quantification (nitrite, Griess reaction) in LPS-activated BV-2 cells). Details: 20 μM, LPS 0.2 ㎍/mL, 24 h co-treatment, nitrite by Griess at 540 nm.
Format: cell-based
In the case of “N-(2-클로로벤질)-6-(메틸설파이닐)-1-페닐-1H-피라졸로[3,4-d]피리미딘-4-아민 [화합물 22f]”, the “NO (% of LPS)” value is reported as 58±3.7 % of LPS. With “N-벤질-1-메틸-6-(메틸티오)피라졸로[3,4-d]피리미딘-4-아민 [화합물 12n]” the “NO (% of LPS)” value was 51±1 % of LPS.

Same assay, conditions: 20 μM, LPS 0.2 ㎍/mL, 24 h co-treatment, nitrite by Griess at 540 nm, 1440 min
With CC(Nc1nc([S+](C)[O-])nc2c1cnn2Cc1ccccc1)c1ccccc1 (stereo not drawn) [화합물 22h, 1-벤질-6-(메틸설파이닐)-N-(1-페닐에틸)-1H-피라졸로[3,4-d]피리미딘-4-아민] the “NO (% of LPS)” value was 59±1.4 % of LPS. CSc1nc(NCc2ccccn2)c2cn[nH]c2n1 [6h, 4-(피리딘-2-일)메틸아미노-6-(메틸티오)피라졸로[3,4-d]피리미딘] was tested, and the “NO (% of LPS)” value was 97±5 % of LPS.

Same assay, conditions: Mus musculus, BV-2, 24 h, 20 μM, LPS 0.2 ㎍/mL, 24 h co-treatment, nitrite by Griess at 540 nm
Compound COc1cccc(CCn2ncc3c(NCc4ccccc4Cl)nc([S+](C)[O-])nc32)c1 (stereo not drawn) [화합물 22k, N-(2-클로로벤질)-1-(3-메톡시펜에틸)-6-(메틸설파이닐)-1H-피라졸로[3,4-d]피리미딘-4-아민] has an activity at 20 µM of 58 ± 2%. CSc1nc(NCc2ccccc2Cl)c2cnn(-c3ccc(F)cc3)c2n1 [화합물 20a, N-(2-클로로벤질)-1-(4-플루오로페닐)-6-(메틸티오)-1H-피라졸로[3,4-d]피리미딘-4-아민] showed an activity at 20 µM of 48 ± 17.2%. For COc1ccccc1CCn1ncc2c(NCc3ccc(F)cc3)nc(SC)nc21 [화합물 19d, 1-(2-메톡시펜에틸)-N-(4-플루오로벤질)-6-(메틸티오)-1H-피라졸로[3,4-d]피리미딘-4-아민], the activity at 20 µM was 40 ± 1.1%. C=CCNc1nc(SC)nc2c1cnn2C [화합물 12i, 1-메틸-4-알릴아미노-6-(메틸티오)피라졸로[3,4-d]피리미딘] gave an activity at 20 µM of 101 ± 3%. With COc1cccc(CNc2nc(SC)nc3c2cnn3Cc2ccccc2)c1 [화합물 16zf, N-(3-메톡시벤질)-1-벤질-6-(메틸티오)-1H-피라졸로[3,4-d]피리미딘-4-아민] the activity at 20 µM was 49 ± 0.6%. Compound C=CCNc1nc(SC)nc2c1cnn2Cc1ccccc1 [화합물 16h, 1-벤질-4-알릴아미노-6-(메틸티오)피라졸로[3,4-d]피리미딘] has an activity at 20 µM of 66 ± 9%. With CSc1nc(Cl)c2c(-c3ccccc3)nn(C(C)(C)C)c2n1 [화합물 30c, 1-t-뷰틸-3-페닐-4-클로로-6-(메틸티오)피라졸로[3,4-d]피리미딘] the activity at 20 µM was 21 ± 22%. For CSc1nc(NCc2ccccc2Cl)c2cnn(CCO)c2n1 [화합물 27h, 2-(4-(2-클로로벤질아미노)-6-(메틸티오)-1H-피라졸로[3,4-d]피리미딘-1-일)에탄올], the activity at 20 µM was 87.4 ± 1.2%. For COc1ccc([C@H](C)Nc2nc(SC)nc3c2cnn3-c2ccccc2)cc1 [화합물 15zc, N-((S)-1-(4-메톡시페닐)에틸)-6-(메틸티오))-1-페닐-1H-피라졸로[3,4-d]피리미딘-4-아민], the activity at 20 µM was 42 ± 0.9%. Work on Cc1ccc(-n2ncc3c(NCc4ccccc4C)nc(S(C)(=O)=O)nc32)cc1 [화합물 23n, N-(2-메틸벤질)-1-(4-메틸페닐)-6-(메틸설포닐)-1-p-톨릴-1H-피라졸로[3,4-d]피리미딘-4-아민] yielded an activity at 20 µM of 82 ± 3.1%. C=CCn1ncc2c(Cl)nc(SC)nc21 [5b, 1-알릴-4-클로로-6-(메틸티오)피라졸로[3,4-d]피리미딘] was tested, and the activity at 20 µM was 63 ± 8%. With CSc1nc(NCc2ccccc2C)c2cn[nH]c2n1 [6r, 4-(2-메틸벤질)아미노-6-(메틸티오)피라졸로[3,4-d]피리미딘] the activity at 20 µM was 64 ± 3%. C=CCn1ncc2c(NC(C)c3ccccc3)nc(SC)nc21 (stereo not drawn) [화합물 13i, 1-알릴-6-(메틸티오)-N-(1-페닐에틸)-1H-피라졸로[3,4-d]피리미딘-4-아민] was tested, and the activity at 20 µM was 9.5 ± 3.8%. CSc1nc(NCc2ccccc2)c2cnn(C)c2n1 [12a, 1-메틸-4-벤질아미노-6-(메틸티오)피라졸로[3,4-d]피리미딘] gave an activity at 20 µM of 77 ± 2%. With CSc1nc(NC(C)C2CCCCC2)c2cn[nH]c2n1 (stereo not drawn) [6j, 4-(1-사이클로헥실에틸)아미노-6-(메틸티오)피라졸로[3,4-d]피리미딘] the activity at 20 µM was 66 ± 10%. With COc1ccc(CNc2nc(SC)nc3c2cnn3-c2ccc(F)cc2)cc1 [화합물 20e, N-(4-메톡시벤질)-1-(4-플루오로페닐)-6-(메틸티오)-1H-피라졸로[3,4-d]피리미딘-4-아민] the activity at 20 µM was 235%. With CSc1nc(NCc2ccccc2C)c2cnn(C)c2n1 [화합물 12l, 1-메틸-4-(2-메틸벤질)아미노-6-(메틸티오)피라졸로[3,4-d]피리미딘] the activity at 20 µM was 69%. With CCSc1nc(SC)nc2c1cnn2Cc1ccccc1 [화합물 16l, 1-벤질-4-(에틸티오)-6-(메틸티오)-1H-피라졸로[3,4-d]피리미딘] the activity at 20 µM was 48 ± 5.1%. Compound CSc1nc(NC(c2ccccc2)c2ccc(Cl)cc2)c2cnn(-c3ccccc3)c2n1 (stereo not drawn) [화합물 15z, N-((4-클로로페닐)(페닐)메틸)-6-(메틸티오)-1-페닐-1H-피라졸로[3,4-d]피리미딘-4-아민] has an activity at 20 µM of 46 ± 0.6%. Compound CSc1nc(NCc2ccccc2)c2cnn(CCO)c2n1 [화합물 27a, 1-(1-하이드록시에틸)-4-벤질아미노-6-(메틸티오)피라졸로[3,4-d]피리미딘] has an activity at 20 µM of 77 ± 5%. Compound CCCCNc1nc(SC)nc2[nH]ncc12 [6e, 4-n-뷰틸아미노-6-(메틸티오)피라졸로[3,4-d]피리미딘] has an activity at 20 µM of 83 ± 9%. CSc1nc(NCc2ccc(F)cc2)c2c(-c3ccccc3)nn(-c3ccccc3)c2n1 [화합물 31c, 1-페닐-3-페닐-4-(4-플루오로벤질)아미노-6-(메틸티오)피라졸로[3,4-d]피리미딘] gave an activity at 20 µM of 100 ± 4%. Compound CS(=O)(=O)c1nc(NCc2ccccc2Cl)c2cnn(-c3ccccc3)c2n1 [화합물 23b, N-(2-클로로벤질)-6-(메틸설포닐)-1-페닐-1H-피라졸로[3,4-d]피리미딘-4-아민] has an activity at 20 µM of 93 ± 2%. Work on CSc1nc(NCCO)c2cn[nH]c2n1 [6f, 4-(1-하이드록시에틸)아미노-6-(메틸티오)피라졸로[3,4-d]피리미딘] yielded an activity at 20 µM of 87 ± 6%. COc1cccc(CNc2nc(SC)nc3c2cnn3CCO)c1 [화합물 27d, 1-(1-하이드록시에틸)-4-(3-메톡시벤질)아미노-6-(메틸티오)피라졸로[3,4-d]피리미딘] showed an activity at 20 µM of 49 ± 12%. CSc1nc(N[C@H](C)c2ccccc2)c2cnn(Cc3ccccc3)c2n1 [화합물 16e, (R)-1-벤질-4-(1-페닐에틸)아미노-6-(메틸티오)피라졸로[3,4-d]피리미딘] showed an activity at 20 µM of 36 ± 4%. COc1ccccc1CNc1nc(SC)nc2[nH]ncc12 [6v, 4-(2-메톡시벤질)아미노-6-(메틸티오)피라졸로[3,4-d]피리미딘] was tested, and the activity at 20 µM was 36 ± 7%. With CSc1nc(Sc2c(Cl)cccc2Cl)c2cnn(Cc3ccccc3)c2n1 [화합물 16t, 4-(2,6-다이클로로페닐티오)-1-벤질-6-(메틸티오)-1H-피라졸로[3,4-d]피리미딘] the activity at 20 µM was 43 ± 1.2%. COc1ccc(CNc2nc(SC)nc3c2cnn3-c2ccccc2)cc1 [화합물 15c, 1-페닐-4-(4-메톡시벤질)아미노-6-(메틸티오)피라졸로[3,4-d]피리미딘] gave an activity at 20 µM of 61 ± 6%. For CSc1nc(NC(C)(C)CO)c2cnn(-c3ccccc3)c2n1 [화합물 15k, 1-페닐-4-[(1-하이드록시-2,2-다이메틸)에틸]아미노-6-(메틸티오)피라졸로[3,4-d]피리미딘], the activity at 20 µM was 70 ± 3%. Work on CSc1nc(NCc2ccc(F)cc2)c2cnn(-c3ccccc3)c2n1 [화합물 15e, 1-페닐-4-(4-플루오로벤질)아미노-6-(메틸티오)피라졸로[3,4-d]피리미딘] yielded an activity at 20 µM of 46 ± 10%. CSc1nc(NCc2ccc(Cl)cc2)c2cnn(-c3ccccc3)c2n1 [화합물 15n, 1-페닐-4-(4-클로로벤질)아미노-6-(메틸티오)피라졸로[3,4-d]피리미딘] was tested, and the activity at 20 µM was 63 ± 6%. COc1ccc(CNc2nc(SC)nc3c2cnn3Cc2ccccc2)cc1 [화합물 16g, 1-벤질-4-(4-메톡시벤질)아미노-6-(메틸티오)피라졸로[3,4-d]피리미딘] showed an activity at 20 µM of 37 ± 6%. CSc1nc(NC(c2ccccc2)c2ccc(Cl)cc2)c2cnn(-c3ccc(C)cc3)c2n1 (stereo not drawn) [화합물 21g, N-((4-클로로페닐)(페닐)메틸)-6-(메틸티오)-1-p-톨릴-1H-피라졸로[3,4-d]피리미딘-4-아민] gave an activity at 20 µM of 79 ± 1.8%. Compound CSc1nc(Cl)c2cnn(-c3ccc(C)cc3)c2n1 [5i, 1-(4-메틸페닐)-4-클로로-6-(메틸티오)피라졸로[3,4-d]피리미딘] has an activity at 20 µM of 54 ± 2.7%. Work on CSc1nc(Cl)c2c(-c3ccccc3)nn(-c3ccccc3)c2n1 [화합물 30a, 1-페닐-3-페닐-4-클로로-6-(메틸티오)피라졸로[3,4-d]피리미딘] yielded an activity at 20 µM of 13 ± 18%. COc1cccc(CCn2ncc3c(NCc4ccccc4C)nc(SC)nc32)c1 [화합물 18c, N-(2-메틸벤질)-1-(3-메톡시펜에틸)-6-(메틸티오)-1H-피라졸로[3,4-d]피리미딘-4-아민] showed an activity at 20 µM of 37 ± 7.9%. With CCN(CC)c1nc(SC)nc2c1cnn2-c1ccccc1 [화합물 15w, 1-페닐-4-다이에틸아미노-6-(메틸티오)피라졸로[3,4-d]피리미딘] the activity at 20 µM was 79 ± 3%. For COc1ccc(Sc2nc(SC)nc3c2cnn3Cc2ccccc2)cc1 [화합물 16q, 4-(4-메톡시페닐티오)-1-벤질-6-(메틸티오)-1H-피라졸로[3,4-d]피리미딘], the activity at 20 µM was 40 ± 1.8%. CSc1nc(NCCN2CCCCC2)c2cnn(-c3ccccc3)c2n1 [화합물 15g, 1-페닐-4-[2-(피페리딘-1-일)]에틸아미노-6-(메틸티오)피라졸로[3,4-d]피리미딘] was tested, and the activity at 20 µM was 64 ± 7%. With C=CCn1ncc2c(NCc3ccccn3)nc(SC)nc21 [화합물 13n, 1-알릴-6-(메틸티오)-N-((피리딘-2-일)메틸)-1H-피라졸로[3,4-d]피리미딘-4-아민] the activity at 20 µM was 17.6 ± 0.7%. Work on COc1ccccc1CNc1nc(SC)nc2c1cnn2CCNC(=O)OC(C)(C)C [화합물 14c, 1-(N-t-Boc-아미노에틸)-4-(2-메톡시벤질)아미노-6-(메틸티오)피라졸로[3,4-d]피리미딘] yielded an activity at 20 µM of 54 ± 5%. For CSc1nc(NC(C)C2CCCCC2)c2cnn(Cc3ccccc3)c2n1 (stereo not drawn) [화합물 16z, 1-벤질-N-(1-사이클로헥실에틸)-6-(메틸티오)-1H-피라졸로[3,4-d]피리미딘-4-아민], the activity at 20 µM was 26 ± 2.4%. For COc1ccc(CNc2nc(SC)nc3c2cnn3CCO)cc1 [화합물 27e, 1-(1-하이드록시에틸)-4-(4-메톡시벤질)아미노-6-(메틸티오)피라졸로[3,4-d]피리미딘], the activity at 20 µM was 56 ± 6%. For COc1nc(SC)nc2c1cnn2CCO [화합물 27f, 2-(4-메톡시-6-(메틸티오)-1H-피라졸로[3,4-d]피리미딘-1-일)에탄올], the activity at 20 µM was 86 ± 3%. Work on CC(Nc1nc(NCCCO)nc2c1cnn2Cc1ccccc1)c1ccccc1 (stereo not drawn) [화합물 24b, 3-(4-(1-페닐에틸아미노)-1-벤질-1H-피라졸로[3,4-d]피리미딘-6-일아미노)프로판-1-올] yielded an activity at 20 µM of 137 ± 5.7%. COc1cccc(CCn2ncc3c(NCc4ccccc4C)nc(S(C)(=O)=O)nc32)c1 [화합물 22m, N-(2-메틸벤질)-1-(3-메톡시펜에틸)-6-(메틸설포닐)-1H-피라졸로[3,4-d]피리미딘-4-아민] showed an activity at 20 µM of 62 ± 2.8%. CSc1nc(NCc2ccccn2)c2cnn(Cc3ccccc3)c2n1 [화합물 16zh, 1-벤질-6-(메틸티오)-N-((피리딘-2-일)메틸)-1H-피라졸로[3,4-d]피리미딘-4-아민] was tested, and the activity at 20 µM was 53 ± 7.2%. CSc1nc(Cl)c2cnn(C(C)(C)C)c2n1 [5g, 1-t-뷰틸-4-클로로-6-(메틸티오)피라졸로[3,4-d]피리미딘] gave an activity at 20 µM of 15 ± 18%. C=CCn1ncc2c(NC(C)(C)CO)nc(SC)nc21 [화합물 13k, 2-(1-알릴-6-(메틸티오)-1H-피라졸로[3,4-d]피리미딘-4-일아미노)-2-메틸프로판-1-올] was tested, and the activity at 20 µM was 15.9 ± 0.6%. Work on COc1ccccc1CCn1ncc2c(NCc3ccccc3Cl)nc(SC)nc21 [화합물 19h, N-(2-클로로벤질)-1-(2-메톡시펜에틸)-6-(메틸티오)-1H-피라졸로[3,4-d]피리미딘-4-아민] yielded an activity at 20 µM of 18 ± 1.2%. COc1ccccc1CCn1ncc2c(Cl)nc(SC)nc21 [5k, 1-(2-메톡시펜에틸)-4-클로로-6-(메틸티오)-1H-피라졸로[3,4-d]피리미딘] gave an activity at 20 µM of 5 ± 62.9%.

Same assay, conditions: Mus musculus, BV-2, 24 h, 30 μM, LPS 0.2 ㎍/mL, 24 h co-treatment, nitrite by Griess at 540 nm
Compound CSc1nc(NCc2ccccc2)c2c(I)n[nH]c2n1 [11a, 3-아이오도-4-벤질아미노-6-(메틸티오)피라졸로[3,4-d]피리미딘] has an activity at 30 µM of 27 ± 11%.
